Patent publication US9920022B2, “Small molecule compound and synthesizing method and uses thereof” (TECHNODERMA MEDICINES PTE LTD., priority 2014, dated 2018)

Key:
Thyroid Receptor TRβ = target: T1, Thyroid Receptor TRβ (Homo sapiens, UniProt P10828); assay: Thyroid Receptor TRβ Agonist Assay (luciferase reporter gene, co-transfected HEK-293 cells); assay type: cell-based; conditions: TRβ plasmid + thyroid hormone response element luciferase reporter in HEK-293 cells; 24 hours; maximum concentration 10 μM
T1 construct: expressed in transfected cells; host or cells: HEK-293
T1 sequence (P10828 1-461): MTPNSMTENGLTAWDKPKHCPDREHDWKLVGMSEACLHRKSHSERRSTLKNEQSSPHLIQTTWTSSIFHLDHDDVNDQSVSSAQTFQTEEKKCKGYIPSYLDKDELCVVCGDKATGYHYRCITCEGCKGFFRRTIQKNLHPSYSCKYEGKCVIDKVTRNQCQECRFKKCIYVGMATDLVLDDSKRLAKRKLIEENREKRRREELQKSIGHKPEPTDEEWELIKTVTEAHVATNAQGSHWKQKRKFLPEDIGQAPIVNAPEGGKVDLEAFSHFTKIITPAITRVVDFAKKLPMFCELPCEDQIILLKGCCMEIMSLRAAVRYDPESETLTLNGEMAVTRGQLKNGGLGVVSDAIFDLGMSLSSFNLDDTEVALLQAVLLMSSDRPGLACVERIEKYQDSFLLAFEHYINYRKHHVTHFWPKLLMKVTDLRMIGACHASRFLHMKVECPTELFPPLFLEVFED
Protocol: B: Thyroid Receptor TRβ Agonist Assay
(2) The residual poly-D-lysine is removed. On the 96-well plate, HEK-293 cells are plated at a density of 4.0×10^4 cells/well in DMEM medium containing 10% FBS. The cells are cultured at 37° C. overnight.
(1) The culture medium is removed 2 hours before transfection. 100 μl of DMEM culture medium containing 10% FBS treated by activated carbon is added to each well, and incubated at 37° C. for 2 hours.
3. For each reaction system, 50 ng thyroid receptor (TRβ) plasmid DNA and 50 ng luciferase reporter gene plasmid DNA of thyroid hormone response element are added. Mixing it completely by gentle pipeting.
4. 0.2 μl of transfection reagent X-tremeGENE HP is added to the diluted co-transfected DNA mixture. Mixing it completely by gentle pipeting.
(3) 10 μl of the complex is added to each well in a 96 well plate. Gently shaking the culturing plate to evenly distribute the complex.
(4) The culture is incubated at 37° C. for 24 hours.
(1) Preparation of compound diluent: for each compound, half-log dilutions of each test compound is prepared using DMEM medium containing 10% charcoal stripped FBS (containing 0.1% DMSO), with a maximum concentration of 10 μM of the test compound.
(2) Removing the culture medium and adding the formulated compound diluent (the final DMSO concentration is 0.1%).
(3) For blank control, DMEM medium containing 10% charcoal stripped FBS (containing 0.1% DMSO) is added.
(4) Incubating at 37° C. for 24 hours.
(1) Removing the culture medium, adding 40 μl phosphate (PBS) buffer to each well.
(2) Adding 40 μl Bright-Glo reagent to each well and vortexing for 30 seconds, followed by incubation in dark for 2 min.
(3) Transferring 70 μl cell lysate from each well into a white polystyrene 96-well plate.
(4) Detecting the Luciferase signal intensity by Envision.

C3H mice = assay: Mouse experiment: hair growth after topical administration; assay type: in vivo; conditions: for day of topical administration on which the skin became black / day on which hair growth was observed: 20 μl/mouse topical twice/day
Protocol: A. Mouse Experiment: TMI-105795 is Used as Test Compound in the Experiment
The tested compound (TMI-105795) is sub-packaged into dose volume and kept at −20° C. before use. All tested compounds (including solvents) are labeled as TDM-001-1, TDM-001-2, TDM-001-3 and TDM-001-4.
Female C3H mice (35-39 days after birth at arrival) were obtained from Beijing Vital River Laboratory Animal Technology Co., Ltd. The mice were selected for inclusion based upon acceptable clinical condition and body weight. Animals were housed randomly 5 mice per cage before grouping. All mice were kept at least one week in acclimation in the animal facility prior to any procedures. Animal identification number was labeled on the tail and cage tag respectively.
The test compound is TMI-105795 (solvent is polyethylene glycol/ethanol (30/70)), it is sub-packaged into dose volume and kept in −20° C. before use. It was topically administered together with solvent twice every day at 9:30 am and 4:00 pm.
Hair growth grade, peripheral hair growth, scaling, erythema will be scored on Monday, Wednesday and Friday from the beginning on the Day 1 to the termination of the experiment.
All experimental mice were carefully dipped with the hair on the back of the rear leg with shaver. Care must be taken to avoid any irritation to the skin on the back of mouse. Skin color on the back was confirmed again. All mice must show pink skin, any mice that show signs of skin abrasion were excluded from the experiment. Mice were randomly divided into 5 groups and housed individually.
Body weight of each mouse is recorded before administration every morning. 20 μl corresponding solution is aspirated by pipette and applied to shaving area on the back of the mouse, and then the drug solution is uniformly applied to the back between rear legs with tips, about a region with a diameter of 1 cm. It is ensured that the administered region is the same one every day, and the mouse is put into the case after drying of liquid.
All mice are scored on Monday Wednesday and Friday each week from the beginning on the Day 1 to the termination of the study, using the following scoring guidelines:
a. Hair Growth Grade (Administration Area):
0=No color change, or hair growth on the skin
1=Skin color changes uniformly over the administration area from pink to gray/black with no visible hair growth;
2=Appearance of short and sparse hair growth;
3=Full thick hair growth similar to the surrounding normal hair coat.
b. Peripheral Hair Growth (Defined as Hair Growth that is in the Dipped Area, but not in the Administration Area):
0=No color change, or hair growth on the skin;
1=Skin color changes to gray/black with no visible hair growth;
2=Peripheral sparse hair growth;
3=Peripheral thick hair growth.

[1] = all treatment groups, 3 weeks topical administration

EC50 (Thyroid Receptor TRβ) [nM]	SMILES	other results
3720	O=C(NO)C(=O)Nc1cc(Cl)c(Oc2ccc(O)c(CN3CCc4ccccc4C3)c2)c(Cl)c1 [TMI-105962, N1-(3,5-dichloro-4-(3-(3,4-dihydroisoquinolin-2(1H)-methyl)-4-hydroxyphenoxy)phenyl)-N2-oxalyl hydroxylamine]	
179	O=C(NO)C(=O)Nc1cc(Cl)c(Oc2ccc(O)c(Cc3ccc(F)cc3)c2)c(Cl)c1 [TMI-105795, N1-(3,5-dichloro-4-(3-(4-fluorobenzyl)-4-hydroxyphenoxy)phenyl)-N2-oxalyl hydroxylamine]	day of topical administration on which the skin became black (C3H mice; TDM-001-2 group, 0.005% (w/v)): 12 days; day on which hair growth was observed (C3H mice; TDM-001-2 group, 0.005% (w/v)): 16 days; day of topical administration on which the skin became black (C3H mice; TDM-001-3 group, 0.01% (w/v)): 2 days; day on which hair growth was observed (C3H mice; TDM-001-3 group, 0.01% (w/v)): 6 days; day of topical administration on which the skin became black (C3H mice; TDM-001-4 group, 0.05% (w/v)): 2 days; day on which hair growth was observed (C3H mice; TDM-001-4 group, 0.05% (w/v)): 8 days; body weight change during administration (C3H mice; all groups, 3 weeks topical administration): would not induce the loss of animal body weight; erythema of the skin (C3H mice; [1]): not observed; scaling of the skin (C3H mice; [1]): not observed; promoting hair growth compared with solvent group (C3H mice; female C3H mice, topical, twice/day, 5 days/week for 3 weeks, every dosing amount (0.005%, 0.01%, 0.05% w/v)): positive result in promoting hair growth; dose dependence of hair growth effect (C3H mice; female C3H mice, topical, 0.005%, 0.01%, 0.05% (w/v)): dose dependent effect is observed
8760	CN1CCN(Cc2cc(Oc3c(Cl)cc(NC(=O)C(=O)NO)cc3Cl)ccc2O)CC1 [TMI-105957, N1-(3,5-dichloro-4-(4-hydroxy-3-(4-methylpiperazine-1-methyl)phenoxy)phenyl)-N2-oxalyl hydroxylamine]	
400	O=C(NO)C(=O)Nc1cc(Cl)c(Oc2ccc(O)c(Cc3ccc(Cl)c(Cl)c3)c2)c(Cl)c1 [TMI-105905, N1-(3,5-dichloro-4-(3-(3,4-dichlorobenzyl)-4-hydroxyphenoxy)phenyl)-N2-oxalyl hydroxylamine]	
9240	O=C(NO)C(=O)Nc1cc(Cl)c(Oc2ccc(O)c(CN3Cc4ccccc4C3)c2)c(Cl)c1 [TMI-105961, N1-(3,5-dichloro-4-(4-hydroxy-3-(isoindolin-2-methyl)phenoxy)phenyl)-N2-oxalyl hydroxylamine]	
9580	O=C1CN(Cc2cc(Oc3c(Cl)cc(NC(=O)C(=O)NO)cc3Cl)ccc2O)CCN1 [TMI-105963]	
9700	O=C(NO)C(=O)Nc1cc(Cl)c(Oc2ccc(O)c(CN3CCCC3)c2)c(Cl)c1 [TMI-105958, N1-(3,5-dichloro-4-(4-hydroxy-3-(methylpyrrolidin-1-methyl)phenoxy)phenyl)-N2-oxalyl hydroxylamine]	
925	O=C(NO)C(=O)Nc1cc(Cl)c(Oc2ccc(O)c(CN3CCOCC3)c2)c(Cl)c1 [TMI-105906, N1-(3,5-dichloro-4-(4-hydroxy-3-(morpholinomethyl)phenoxy)phenyl)-N2-oxalyl hydroxylamine]	
250	CS(=O)(=O)c1ccc(Cc2cc(Oc3c(Cl)cc(NC(=O)C(=O)NO)cc3Cl)ccc2O)cc1 [TMI-105902, N1-(3,5-dichloro-4-(3-(4-methylsulphonylbenzyl)-4-hydroxyphenoxy)phenyl)-N2-oxalyl hydroxylamine]	
96	O=C(NO)C(=O)Nc1cc(Cl)c(Oc2ccc(O)c(Cc3cccc(F)c3)c2)c(Cl)c1 [TMI-105965]	
61.1	O=C(NO)C(=O)Nc1cc(Cl)c(Oc2ccc(O)c(Cc3ccccc3F)c2)c(Cl)c1 [TMI-105966]	
617	O=C(NO)C(=O)Nc1cc(Cl)c(Oc2ccc(O)c(CN3CCC(Cc4ccccc4)CC3)c2)c(Cl)c1 [TMI-105959]	
6520	O=C(NO)C(=O)Nc1cc(Cl)c(Oc2ccc(O)c(CN3CCC(O)CC3)c2)c(Cl)c1 [TMI-105956]	
136	Cc1ccc(Cc2cc(Oc3c(Cl)cc(NC(=O)C(=O)NO)cc3Cl)ccc2O)cc1 [TMI-105903, N1-(3,5-dichloro-4-(3-(4-methylbenzyl)-4-hydroxyphenoxy)phenyl)-N2-oxalyl hydroxylamine]	
